“And” between values parts separate entries of the source, which are not always exact repeats. Identical values can stand only once.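 Assay format: 96-well plates, 48-hour exposure. GI50 is the concentration that inhibits growth by half. At the TGI there is no net growth.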
Assays:
Assay in all cases: NCI tumour cell line growth inhibition, 48 h
[1] = system: SK-OV-3 ovarian
[2] = system: UACC-62 melanoma
[3] = system: SR leukemia
[4] = system: MOLT-4 leukemia
[5] = system: MDA-MB-231 breast
[6] = system: SK-MEL-28 melanoma
[7] = system: M14 melanoma
[8] = system: HL-60(TB) leukemia
[9] = system: OVCAR-8 ovarian
[10] = system: SF-539 CNS

Row | Structure (SMILES) | GI50 [1] | TGI [1] | GI50 [2] | TGI [2] | GI50 [3] | TGI [3] | GI50 [4] | TGI [4] | GI50 [5] | TGI [5] | GI50 [6] | TGI [6] | GI50 [7] | TGI [7] | GI50 [8] | TGI [8] | GI50 [9] | TGI [9] | GI50 [10] | TGI [10]
1 | CCCC/C(=N\N=C(N)N)c1ccc(F)cc1 | 2.61 µM | 11 µM | 3.14 µM | 14.8 µM | 0.481 µM | 11.9 µM | 3.35 µM | 24.4 µM | 5.42 µM | 18.9 µM | 4.21 µM | 17.6 µM | 2.35 µM | 10.4 µM | 2.29 µM | 6.09 µM | 3.61 µM | 15.2 µM | 2.77 µM | 8.59 µM
2 | COc1ccc(S(=O)(=O)N/N=C/C(=O)O)cc1 | – | > 1250 µM | – | 984 µM | – | 603 µM | – | 694 µM | – | > 1250 µM | – | > 1250 µM | – | > 1250 µM | – | 463 µM | – | 1100 µM | – | 1080 µM
3 | COC(=O)[C@H](Cc1ccccc1)NC(=O)c1csc([C@@H](C[C@H](C(C)C)N(C)C(=O)[C@@H](NC(=O)[C@H]2CCCCN2C)C2CC2)OC(C)=O)n1 | 0.121 µM | > 25 µM | 0.247 µM | > 25 µM | 0.00563 µM | > 25 µM | 0.0362 µM | > 25 µM | 0.0763 µM | > 12.5 µM | 1.01 µM | > 25 µM | 0.0328 µM | – | 0.0137 µM | 0.193 µM | 0.0898 µM | > 25 µM | 0.0376 µM | 0.194 µM
4 | C/C(=C(/c1ccc(O)cc1)c1ccc(OCCN2CCCC2)cc1)c1ccccc1 | 3.25 µM | 13 µM | 2.26 µM | 4.72 µM | 1.93 µM | 5.75 µM | 2.94 µM | 11 µM | 3.51 µM | 8.4 µM | 1.65 µM | 3.41 µM | 1.88 µM | 4.08 µM | 2.04 µM | 4.97 µM | 5.73 µM | 23.1 µM | 1.81 µM | 3.76 µM
5 | CCN(CC)CCC(=O)Nc1ccc(Cn2nnc3c2C(=O)c2nnn(Cc4ccc(NC(=O)CCN(CC)CC)cc4)c2C3=O)cc1 | 2.08 µM | 5.88 µM | 1.08 µM | 2.67 µM | 0.507 µM | 5 µM | 0.242 µM | 0.628 µM | 0.253 µM | 10.2 µM | 1.09 µM | 2.82 µM | 1.49 µM | 3.43 µM | 0.228 µM | 0.628 µM | 1.83 µM | 4.41 µM | 0.295 µM | 0.821 µM
6 | CC(C)(C)n1cc(-c2ccnc(NCCNS(=O)(=O)c3ccc(Br)cc3)c2)c(-c2cccc(O)c2)n1 | 2.29 µM | 6.1 µM | 1.57 µM | 3.08 µM | 0.286 µM | 6.16 µM | – | – | 1.91 µM | 4.07 µM | 1.75 µM | 3.26 µM | 1.77 µM | 3.4 µM | 0.581 µM | 2.88 µM | 2.27 µM | 7.71 µM | 1.54 µM | 3.11 µM
7 | Cn1c(=O)n(-c2ccc(C(C)(C)C#N)cc2)c2c3cc(-c4cnc5ccccc5c4)ccc3ncc21 | < 0.01 µM and 0.00494 µM | 0.0442 µM and 0.0549 µM and 0.0293 µM | 0.0112 µM and 0.00494 µM and < 0.01 µM | 0.0809 µM and 0.0513 µM and 0.0445 µM | 0.0386 µM and 0.00551 µM and < 0.0137 µM | > 100 µM | 0.025 µM and 0.00703 µM and 0.0148 µM | – | 0.0197 µM and 0.00686 µM and < 0.011 µM | 48.5 µM and > 10 µM and > 44.3 µM | 0.016 µM and 0.0328 µM and < 0.0123 µM | – | 0.018 µM and 0.00656 µM and < 0.01 µM | – | 0.0701 µM and 0.0705 µM and 0.0783 µM | 2.4 µM and > 5.01 µM | 0.0101 µM and 0.00582 µM and < 0.01 µM | – | < 0.01 µM and 0.00503 µM | 0.0761 µM and 0.0316 µM and 0.118 µM
8 | CN1C(=O)c2cc(Cl)nc3c(NC(=O)c4cccc(Cl)c4)c(Cl)c(NC(=O)c4cccc(Cl)c4)c1c23 | 4.98 µM | 17.4 µM | 1.92 µM | 3.76 µM | 0.58 µM | 2.95 µM | 2.07 µM | 5.21 µM | 2.05 µM | 4.24 µM | 1.78 µM | 3.45 µM | 1.47 µM | 3.03 µM | 2.17 µM | 5.11 µM | 2.48 µM | 5.7 µM | 1.67 µM | 3.39 µM
9 | O=C(Oc1c(I)ccccc1=O)c1ccc([N+](=O)[O-])cc1 | – | – | – | 51 µM | – | 24.2 µM | – | – | – | 87.7 µM | – | 21.7 µM | – | 73.3 µM | – | 46.5 µM | – | 65.1 µM | – | 37.6 µM
10 | CC1(CC(=O)O)OC2CCCCCC2O1 (centres undefined) (tested in a mixture with another compound) | – | > 100 µM | – | > 100 µM | – | > 100 µM | – | > 100 µM | – | > 100 µM | – | > 100 µM | – | > 100 µM | – | > 100 µM | – | > 100 µM | – | > 100 µM
11 | Cc1ccc(NCSc2ccc(Cl)cc2)cc1 | 67 µM | > 100 µM | 87.2 µM | > 100 µM | > 100 µM | > 100 µM | 6.15 µM | > 100 µM | 15.1 µM | > 100 µM | > 100 µM | > 100 µM | 77.1 µM | > 100 µM | 2.45 µM | > 100 µM | > 100 µM | > 100 µM | 22.9 µM | > 100 µM
12 | COc1ccccc1Cn1cc2c(c1)-c1oncc1CC2 | 0.46 µM | 8.44 µM | 1.11 µM | > 100 µM | 0.379 µM | 8.95 µM | 0.477 µM | 14.8 µM | 1.34 µM | > 100 µM | 2.52 µM | > 100 µM | 0.549 µM | > 41.9 µM | 0.268 µM | 0.814 µM | 1.92 µM | > 50.8 µM | 0.453 µM | 5.13 µM
13 | CC[C@]12C=CCN3CC[C@]4(C(=C(C(=O)OC)C1)Nc1cc(O)ccc14)[C@@H]32 | – | – | 7.18 µM | 22.3 µM | 12.3 µM | > 100 µM | 21.6 µM | 74.2 µM | 13.8 µM | 41.6 µM | 17 µM | 42.5 µM | 13.9 µM | 34.3 µM | 25.8 µM | 72.5 µM | 24.5 µM | 68.8 µM | 15.1 µM | 30.1 µM
